Assay results from ChEMBL document CHEMBL1129161, “Studies on the active metabolite (DU-86) of KW-2189, a novel derivative of duocarmycin” (Bioorg Med Chem Lett, 1996).

Experiments:
Sarcoma-180 [1] = experiment: Antitumor activity expressed as T/C at an intravenous dose of 0.13 mg/kg in mice implanted subcutaneously with murine sarcoma 180 cells.; type: functional, Mus musculus
HeLa [2] = experiment: Concentration required to inhibit the growth of HeLa S3 cells after 1 hour.; type: functional, cell-based; settings: Homo sapiens
HeLa [3] = experiment: Concentration required to inhibit the growth of HeLa S3 cells after 72 hours.; type: functional, cell-based; settings: Homo sapiens
Sarcoma-180 [4] = experiment: Antitumor activity expressed as T/C at an intravenous dose of 1.0 mg/kg in mice implanted subcutaneously with murine sarcoma 180 cells.; type: functional, Mus musculus
Sarcoma-180 [5] = experiment: Antitumor activity expressed as T/C at an intravenous dose of 8.0 mg/kg in mice implanted subcutaneously with murine sarcoma 180 cells.; type: functional, Mus musculus

SMILES | T/C (Sarcoma-180 [1]) | IC50 (HeLa [2]) [nM] | IC50 (HeLa [3]) [nM] | T/C (Sarcoma-180 [4]) | T/C (Sarcoma-180 [5])
COC(=O)c1c(C)[nH]c2c1[C@@]13C[C@@H]1CN(C(=O)c1cc4cc(OC)c(OC)c(OC)c4[nH]1)C3=CC2=O | 0.18 |  |  |  | 
COC(=O)c1c2c(n(C)c1C)C(=O)C=C1N(C(=O)c3cc4cc(OC)c(OC)c(OC)c4[nH]3)C[C@H]3C[C@]123 |  | 1.4 | 0.069 | 0.22 | 
COC(=O)c1c(C)[nH]c2c1[C@@]13C[C@@H]1Cn1c(O)c4nc5c(OC)c(OC)c(OC)cc5c-4c(c13)C2=O |  | 36 | 6.6 |  | 
COC(=O)c1c2c(n(C)c1C)C(=O)C=C1N(C(=O)c3cc4cc(OC)c(OC)c(OC)c4n3C)C[C@H]3C[C@]123 |  | 890 | 230 |  | 0.96
